Test results from patent US20220221458A1, “NOROVIRUS-BINDING PEPTIDE” (Kao Corporation, priority 2019, published 2022).
Ends that are not written are not given here.

Tests used:
[1] = system: norovirus VLPs (GII.4, GII.3, GII.17); assay: In vitro selection by cDNA display against VLPs with appearance frequency analysis of sequences; details: count among peptide aptamer sequences obtained after in vitro selection cycles (7 cycles GII.4, 5 cycles GII.3 and GII.17)
Procedure: The constructed cDNA display and VLPs were incubated in 100 μL of a dialysis selection buffer (20 mM HEPES (pH 7.4), 150 mM NaCl, and 0.05% s Tween 20) at the concentrations shown in Table 9 below at 25° C. for 30 minutes. Subsequently, the resultant was diluted to 1 mL with the dialysis selection buffer, and was put in Float-A-Lyzer G2 Dialysis Device CE, 1000kD MWCO (manufactured by Spectrum Laboratories, Inc.) and was dialyzed with 1 L of the dialysis selection buffer as the external solution at 25° C. During the dialysis, the external solution was replaced with new one 3 times every 2 hours, and the dialysis was performed overnight (for 8 hours) after the 4th replacement. The dialysis product was concentrated with Amicon Ultra 100K (manufactured by Merck Millipore S.A.S.) at 14,000×g for 5 minutes.
To an immunoplate (C-BOTTOM, CLEAR, MICROLON (registered trademark), HIGH BINDING, manufactured by Greiner Bio-One), 100 μL of 3 μg/mL GII.3 or GII.17 VLP solution was added and immobilization was performed at 4° C. overnight. Subsequently, the solution was discarded, and 200 μL of a blocking agent (EMD Millipore™ Blok™ NSB Blocking agents, Thermo Fisher Scientific) was added, followed by gently stirring at room temperature for 2 hours for blocking. On this occasion, wells not immobilizing the VLP were also subjected to similar blocking to be used in preselection.
The solution was discarded from the wells, the wells were washed with 200 μL of a wash buffer (10 mM Hepes (pH 7.4), 150 mM NaCl, and 0.05% Tween 20) three times, and 100 μL of cDNA display (constructed from 1.5 pmol of mRNA-linker) was then put in the wells not immobilizing the VLP, followed by gently stirring at room temperature for 30 minutes to perform preselection. Subsequently, the supernatant containing cDNA display that had not bound to the blocking agent was put in the wells immobilizing the VLP, followed by gently stirring at room temperature for 30 minutes to be bound to the VLP. The supernatant was discarded, washing with 100 μL of the wash buffer was performed four times, and 100 μL of a 5′ SDS solution was then added, followed by incubation at 50° C. for 15 minutes to elute the bound cDNA display.
Subsequently, the VLP-cDNA display complex obtained above was diluted to 100 μL with a dialysis selection buffer, and 10 μL of a coprecipitating agent (Quick-Precip Plus Solution, manufactured by EdgeBio) and 220 μL of 100% ethanol were added, followed by centrifugation at 20,000×g for 5 minutes. Subsequently, the supernatant was discarded, and 1 mL of 70, ethanol was added for rinsing. […] The PCR program was (a) 98° C. for 2 minutes, (b) 95° C. for 20 seconds, (c) 69° C. for 20 seconds, (d) 72° C. for 20 seconds (steps (b) to (d) were performed 25 cycles), and (e) 72° C. for 1 minute.
After the in vitro selection cycle (7 cycles for GII.4 and 5 cycles for GII.3 and GII.17 based on the libraries of 7 cycles obtained by GII.4 dialysis), a sequence library was prepared by the following method, and the sequence information was analyzed. The preparation of the sequence library and the sequencing were performed according to the 16S Metagenomic Sequencing Library Preparation protocol (manufactured by Illumina, Inc.).
The Fastq file of the obtained sequence was converted to a Fasta file, all of the obtained sequences were simultaneously translated from the first base of the start codon (ATG) at position 115 to the third base of the cysteine codon (TGC) at position 156 of the library sequence (SEQ ID NO: 279) using software MEGA.

[2] = molecular target: GII.3 VLP (norovirus GII.3 TCH strain); assay: BLI (BLItz), biotin peptide on SA chip, GII.3 VLP at 1 and 0.1 mg/mL

Molecule	Appearance Frequency [1]	further results
207 (LHHSSY; Designed peptide) [compound 207]	6	–
208 (LLGKPV; Designed peptide) [compound 208]	6	–
209 (LNDMSF; Designed peptide) [compound 209]	6	–
210 (LSLRSQ; Designed peptide) [compound 210]	6	–
211 (LTALSV; Designed peptide) [compound 211]	6	–
212 (MDHEMF; Designed peptide) [compound 212]	6	–
213 (MQFELV; Designed peptide) [compound 213]	6	–
214 (MSNKMV; Designed peptide) [compound 214]	6	–
215 (NAVSLK; Designed peptide) [compound 215]	6	–
216 (NCRTRP; Designed peptide) [compound 216]	6	–
217 (NDHDHH; Designed peptide) [compound 217]	6	–
218 (NGHSHA; Designed peptide) [compound 218]	6	–
219 (NKSFHR; Designed peptide) [compound 219]	6	–
220 (NPVHIK; Designed peptide) [compound 220]	6	–
221 (NRVKPR; Designed peptide) [compound 221]	6	–
222 (NSIAHR; Designed peptide) [compound 222]	6	–
223 (NSRYFT; Designed peptide) [compound 223]	6	–
224 (PDRFCA; Designed peptide) [compound 224]	6	–
225 (PWTVPN; Designed peptide) [compound 225]	6	–
226 (QCELKD; Designed peptide) [compound 226]	6	–
227 (QFSQLG; Designed peptide) [compound 227]	6	–
228 (QRVSFL; Designed peptide) [compound 228]	6	–

Molecule	Appearance Frequency [1]	further results
229 (QVIQRL; Designed peptide) [compound 229]	6	–
230 (QYCFVG; Designed peptide) [compound 230]	6	–
231 (RGGRTL; Designed peptide) [compound 231]	6	–
232 (RGHPST; Designed peptide) [compound 232]	6	–
233 (RGTMWL; Designed peptide) [compound 233]	6	–
234 (RHGQFF; Designed peptide) [compound 234]	6	–
235 (RHTQTL; Designed peptide) [compound 235]	6	–
236 (RIVLES; Designed peptide) [compound 236]	6	–
237 (RKCIDR; Designed peptide) [compound 237]	6	–
238 (RLHQCR; Designed peptide) [compound 238]	6	–
239 (RLRDPQ; Designed peptide) [compound 239]	6	–
240 (RNHSRI; Designed peptide) [compound 240]	6	–
241 (RSSAKR; Designed peptide) [compound 241]	6	–
242 (RTISGS; Designed peptide) [compound 242]	6	–
243 (RTLLVQ; Designed peptide) [compound 243]	6	–
244 (RTVPSS; Designed peptide) [compound 244]	6	–
245 (RYMPVA; Designed peptide) [compound 245]	6	–
246 (SAMFAS; Designed peptide) [compound 246]	6	–
247 (SEHNRY; Designed peptide) [compound 247]	6	–
248 (SHWRSY; Designed peptide) [compound 248]	6	–
249 (SIITRR; Designed peptide) [compound 249]	6	–
250 (SKVIRW; Designed peptide) [compound 250]	6	–

Molecule	Appearance Frequency [1]	further results
251 (SKYTAL; Designed peptide) [compound 251]	6	–
252 (SRSHWG; Designed peptide) [compound 252]	6	–
253 (SSKSFA; Designed peptide) [compound 253]	6	–
254 (STEFAR; Designed peptide) [compound 254]	6	–
255 (STLVCP; Designed peptide) [compound 255]	6	–
256 (STSVDW; Designed peptide) [compound 256]	6	–
257 (TNRTVS; Designed peptide) [compound 257]	6	–
258 (TNYLSF; Designed peptide) [compound 258]	6	–
259 (VGMHHS; Designed peptide) [compound 259]	6	–
260 (VMSPCN; Designed peptide) [compound 260]	6	–
261 (VPFPHH; Designed peptide) [compound 261]	6	–
262 (VPLLSR; Designed peptide) [compound 262]	6	–
263 (VSDPVV; Designed peptide) [compound 263]	6	–
264 (WTMSPA; Designed peptide) [compound 264]	6	–
265 (WVFVKH; Designed peptide) [compound 265]	6	–
266 (YGKQRG; Designed peptide) [compound 266]	6	–
267 (YKASHG; Designed peptide) [compound 267]	6	–
268 (YRSNHG; Designed peptide) [compound 268]	6	–
269 (YYPDHP; Designed peptide) [compound 269]	6	–
GKFFCH (also: spacer with Trp and biotin, letters and position not given here) [peptide of SEQ ID NO: 21, synthesized, with spacer sequence and biotin]	–	Kd [2]: 107 µM; koff [2]: 0.0382 s⁻¹; kon [2]: 358 M⁻¹ s⁻¹
GRRYYI (also: spacer with Trp and biotin, letters and position not given here) [peptide of SEQ ID NO: 1, synthesized, with spacer sequence and biotin]	–	Kd [2]: 6.01 µM; koff [2]: 0.0546 s⁻¹; kon [2]: 9070 M⁻¹ s⁻¹
VMMQCP (also: spacer with Trp and biotin, letters and position not given here) [peptide of SEQ ID NO: 28, synthesized, with spacer sequence and biotin]	–	Kd [2]: 218 µM; koff [2]: 0.05 s⁻¹; kon [2]: 230 M⁻¹ s⁻¹
